Where two headings read alike, the source gives them in different places.
T1: Lactobacillus brevis PduP, CoA-acylating propionaldehyde dehydrogenase (PduP_L.bre, YP_795711, SEQ ID NO:47 and 48), poly-His6 tagged (Levilactobacillus brevis, UniProt Q03Q42)
T1 sequence (Q03Q42 1-477): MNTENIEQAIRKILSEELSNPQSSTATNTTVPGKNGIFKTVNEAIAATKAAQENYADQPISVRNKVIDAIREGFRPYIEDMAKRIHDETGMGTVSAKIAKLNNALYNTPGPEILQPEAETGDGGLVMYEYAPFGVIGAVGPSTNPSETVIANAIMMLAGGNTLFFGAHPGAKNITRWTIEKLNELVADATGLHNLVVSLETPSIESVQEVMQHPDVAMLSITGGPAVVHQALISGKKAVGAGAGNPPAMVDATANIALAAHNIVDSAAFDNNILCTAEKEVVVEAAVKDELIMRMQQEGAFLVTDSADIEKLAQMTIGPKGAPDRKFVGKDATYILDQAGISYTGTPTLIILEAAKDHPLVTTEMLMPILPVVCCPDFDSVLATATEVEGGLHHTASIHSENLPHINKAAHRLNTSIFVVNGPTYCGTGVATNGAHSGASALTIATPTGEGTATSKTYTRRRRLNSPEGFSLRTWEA

B1: K. pne: PduP homologue from Klebsiella pneumoniae, YP_001336844; SEQ ID NO:45 and 46 (protein, listed as Klebsiella pneumoniae)
chain: MNTAELETLIRTILSEKLAPTPPAPQQEQGIFCDVGSAIDAAHQAFLRYQQCPLKTRSAIISALRETLAPELATLAEESATETGMGNKEDKYLKNKAALENTPGIEDLTTSALTGDGGMVLFEYSPFGVIGAVAPSTNPTETIINNSISMLAAGNSVYFSPHPGAKKVSLKLIARIEEIAYRCSGIRNLVVTVAEPTFEATQQMMSHPLIAVLAITGGPGIVAMGMKSGKKVIGAGAGNPPCIVDETADLVKAAEDIISGAAFDYNLPCIAEKSLIVVASVADRLIQQMQDFDALLLSRQEADTLRAVCLPDGAANKKLVGKSPAALLAAAGLAVPPRPPRLLIAEVEANAPWVTCEQLMPVLPIVRVADFDSALALALRVEEGLHHTAIMHSQNVSRLNLAARTLQTSIFVKNGPSYAGIGVGGEGFTTFTIATPTGEGTTSARTFARLRRCVLTNGFSIR
B2: Lactobacillus brevis PduP, CoA-acylating propionaldehyde dehydrogenase (PduP_L.bre, YP_795711, SEQ ID NO:47 and 48), poly-His6 tagged (Levilactobacillus brevis … (protein)
chain: T1 sequence (Q03Q42 1-477)

How the values were obtained:
[1] = test system: S. elongatus strain BUOH-SE
Method: S. elongatus PCC7942 cells were grown according to the procedure in “culture medium and condition”. Once growth reached OD730 about 2, the culture was diluted to OD730 of 0.1 with 50 mL fresh BG11 medium containing 50 mM NaHCO3 and appropriate antibiotics. Then, various amounts of n-butanol were added into the culture to achieve the desired concentration (0, 250, 500, 750, and 1000 mg/L). Growth was measured daily. Every two days, 5 mL of culture was removed and 5 mL fresh BG-11 containing 500 mM NaHCO3, appropriate amounts of antibiotics and n-butanol was added back to the culture to ensure sufficient carbon supply.

[2] = test system: S. elongatus strain BUOH-SE; test: n-Butanol toxicity test (growth); format: cell-based, Synechococcus elongatus PCC 7942
Method: Growth was measured daily.

[3] = target: T1, Lactobacillus brevis PduP, CoA-acylating propionaldehyde dehydrogenase (PduP_L.bre, YP_795711, SEQ ID NO:47 and 48), poly-His6 tagged; test: Kinetic parameters of PduP (CoA-acylating aldehyde dehydrogenase), NADH depletion at 340 nm; format: biochemical; settings: for kcat: pH 7.15, 30° C., 500 μM NADH, 1 mM DTT, acyl-CoA 0.03 mM to 2 mM
Method: (§1) Protein purification was done by using His-Spin Protein miniprep purification kit from Zymo following manufacturer's manual. Overnight culture of E. coli strain BL-21(DE3) harboring different pCDF-pdup plasmid was used to inoculate fresh 20 ml LB. The newly inoculated culture was incubated at 37° C. until OD600 nm reaches 0.6 which was then induced with 1 mM IPTG. The induced cultures were then incubated overnight in 30° C. rotary shaker to allow protein expression. The cultures were then harvested by centrifugation at 4,300×g for 20 min. The pellet was then resuspended with 1 mL of Zymo His-binding buffer and mixed with 1 mL of 0.1 mm glass beads (Biospec). The sample was then homogenated using TissueLyser II (Quiagen).
(§2) Enzyme assays were conducted by using Bio-Tek PowerWave XS microplate spectrophotometer. CoA-acylating aldehyde dehydrogenase activity was measured by the decrease of absorbance at 340 nm, corresponding to depletion of NADH. […] For determining specific activity for other chain length acyl-CoA, 500 μM was used. The mixture excluding acyl-CoA was incubated for 5 minutes at 30° C. The addition of the acyl-CoA initiated the reaction. kcat and Km were determined by nonlinear regression fitting to Michaelis-Menten equation using graphing software Origin.
(§3) To characterize these PduP homologues, plasmids harboring individual pduP genes were constructed with a poly-His6 tag (plasmids pCDF-pduP_ahyd, pCDF-pdup_kpne, pCDF-pdup_lbre, pCDF-pdup_lmon, pCDF-pdup_sent, and pCDF-pdup_pgin). PduP homologues were then purified under aerobic condition without cleaving off His tags. The activities of the enzymes were determined using acyl-CoA with different chain lengths, and the disappearance of NADH was monitored.
(§4) The efficiency of these PduP homologues were assessed.

[4] = target: Klebsiella pneumoniae PduP, CoA-acylating propionaldehyde dehydrogenase (PduP_K.pne, YP_001336844, SEQ ID NO:45 and 46), poly-His6 tagged (Klebsiella pneumoniae, UniProt A0ACD7U6D7); test: as above; settings: for kcat: pH 7.15, 30° C., 500 μM NADH, 1 mM DTT, acyl-CoA 0.03 mM to 2 mM
Method: as §1, §2, §3, §4

[5] = target: Listeria monocytigenes PduP, CoA-acylating propionaldehyde dehydrogenase (PduP_L.mon, NP_464690, SEQ ID NO:49 and 50), poly-His6 tagged (Listeria monocytogenes, UniProt Q8Y7V4); test: as above; settings: for kcat: pH 7.15, 30° C., 500 μM NADH, 1 mM DTT, acyl-CoA 0.03 mM to 2 mM
Method: as §1, §2, §3, §4

[6] = target: Porphyromonas gingivalis PduP, CoA-acylating propionaldehyde dehydrogenase (PduP_P.gin, YP_001928839, SEQ ID NO:51 and 52), poly-His6 tagged (Porphyromonas gingivalis, UniProt B2RIP7); test: as above; settings: for kcat: pH 7.15, 30° C., 500 μM NADH, 1 mM DTT, acyl-CoA 0.03 mM to 2 mM
Method: as §1, §2, §3, §4

[7] = target: Salmonella enterica PduP, CoA-acylating propionaldehyde dehydrogenase (PduP_S.ent, AAD39015, SEQ ID NO:33 and 34), poly-His6 tagged (Salmonella enterica, UniProt Q9XDN1); test: as above; settings: for kcat: pH 7.15, 30° C., 500 μM NADH, 1 mM DTT, acyl-CoA 0.03 mM to 2 mM
Method: as §1, §2, §3, §4

[8] = CoA-acylating aldehyde dehydrogenase (PduP) assay, butyryl-CoA reduction; format: biochemical; settings: purified under aerobic condition; 500 μM NADH, 1 mM DTT, pH 7.15, 30° C.
Method: as §1, §2, §3, §4

[9] = Substrate chain length specificity of PduP; format: biochemical; settings: acyl-CoA chain lengths C2 to C12
Method: FIG. 3A-B Substrate chain length specificity of CoA-acylating aldehyde dehydrogenases, PduP. A) Specific activity of different PduP (pmol min^−1 mg^−1). B) Relative activity of PduP. Specific activity was determined with substrate concentration of 1 mM acyl-CoA, 500 uM NADH, 1 mM DTT in 50 mM potassium phosphate buffer at pH 7.15 at 30° C.
as §2, §3

E. coli strain JCL166 = test: E. coli anaerobic growth rescue with PduP and n-butanol pathway; format: cell-based; settings: GC of culture medium
Method: Cells of E. coli strain JCL166 and its derivatives were cultured overnight in LB with appropriate antibiotics at 37° C. Overnight cultures (3 μL) were used to inoculate 3 mL of fresh LB media supplemented with 1% glucose and appropriate antibiotics (100 μg/mL ampicillin and 50 μg/mL kanamycin) and 0.1 mM IPTG in 10 mL BD vacutainers. A needle with Millipore PES filter was used to pierce through the rubber cap of the culture. The headspace of these cultures was then purged several times with 95% N2/5% H2 gas using an anaerobic chamber (Coy Lab Products, Grass Lake, Mich.). The needle with filter was removed in anaerobic chamber. These anaerobic cultures were then taken out of anaerobic chamber and incubated in 37° C. rotary shaker. Culture was analyzed 24 hours later for cell density and alcohol content measurement.
These PduP homologues were tested for n-butanol production utilizing an anaerobic growth rescue assay. E. coli strain JCL 166 (ΔadhE, ΔldhA, ΔfrdB) contains gene knock-outs for mixed acid fermentation. Fermentation pathways are essential for E. coli to recycle NADH back into to NAD^+ for the Embden-Meyerhof-Parnas pathway to continue (FIG. 2A). […] The culture medium of these anaerobically grown cultures were analyzed for alcohol production (FIG. 2C) using gas chromatography (GC).

[10] = substrate: CC(=O)SCCNC(=O)CCNC(=O)[C@H](O)C(C)(C)COP(=O)(O)OP(=O)(O)OC[C@H]1O[C@@H](n2cnc3c(N)ncnc32)[C@H](O)[C@@H]1OP(=O)(O)O; test: purified protein, by the assay type; settings: other: pH 7.15, 30° C., 500 μM NADH, 1 mM DTT, acyl-CoA 0.03 mM to 2 mM
[11] = substrate: CCCC(=O)SCCNC(=O)CCNC(=O)[C@H](O)C(C)(C)COP(=O)(O)OP(=O)(O)OC[C@H]1O[C@@H](n2cnc3c(N)ncnc32)[C@H](O)[C@@H]1OP(=O)(O)O; test: purified protein, by the assay type; settings: other: pH 7.15, 30° C., 500 μM NADH, 1 mM DTT, acyl-CoA 0.03 mM to 2 mM
[12] = kcat/Km butyryl-CoA over kcat/Km acetyl-CoA

Chain of Salmonella enterica PduP, CoA-acylating propionaldehyde dehydrogenase (PduP_S.ent, AAD39015, SEQ ID NO:33 and 34), poly-His6 tagged (Q9XDN1 whole entry): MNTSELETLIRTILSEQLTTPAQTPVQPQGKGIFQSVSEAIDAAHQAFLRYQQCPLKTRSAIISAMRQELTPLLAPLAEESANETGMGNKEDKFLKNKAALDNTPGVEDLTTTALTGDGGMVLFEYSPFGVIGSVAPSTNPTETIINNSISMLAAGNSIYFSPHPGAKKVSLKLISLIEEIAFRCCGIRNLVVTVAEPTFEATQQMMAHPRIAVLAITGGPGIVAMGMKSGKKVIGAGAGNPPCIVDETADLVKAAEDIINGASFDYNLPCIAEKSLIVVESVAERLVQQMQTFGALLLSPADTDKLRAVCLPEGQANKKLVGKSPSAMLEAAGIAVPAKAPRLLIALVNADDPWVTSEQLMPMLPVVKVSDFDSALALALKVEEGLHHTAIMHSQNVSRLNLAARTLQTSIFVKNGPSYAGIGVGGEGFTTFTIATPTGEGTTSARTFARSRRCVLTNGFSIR
Chain of Porphyromonas gingivalis PduP, CoA-acylating propionaldehyde dehydrogenase (PduP_P.gin, YP_001928839, SEQ ID NO:51 and 52), poly-His6 tagged (B2RIP7 entry or part of it): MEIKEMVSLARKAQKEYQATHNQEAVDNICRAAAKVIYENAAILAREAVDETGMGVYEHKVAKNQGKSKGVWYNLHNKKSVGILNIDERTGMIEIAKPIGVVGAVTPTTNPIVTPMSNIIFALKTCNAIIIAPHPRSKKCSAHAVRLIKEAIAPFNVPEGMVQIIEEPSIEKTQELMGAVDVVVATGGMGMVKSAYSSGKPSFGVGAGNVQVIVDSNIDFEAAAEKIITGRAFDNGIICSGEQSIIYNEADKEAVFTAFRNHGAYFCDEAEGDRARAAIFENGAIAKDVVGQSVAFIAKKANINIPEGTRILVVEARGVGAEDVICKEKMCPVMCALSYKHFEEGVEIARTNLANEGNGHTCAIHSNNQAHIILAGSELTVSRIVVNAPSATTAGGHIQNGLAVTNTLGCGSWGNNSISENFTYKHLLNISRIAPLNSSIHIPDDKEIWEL
Chain of Listeria monocytigenes PduP, CoA-acylating propionaldehyde dehydrogenase (PduP_L.mon, NP_464690, SEQ ID NO:49 and 50), poly-His6 tagged (Q8Y7V4 entry or part of it): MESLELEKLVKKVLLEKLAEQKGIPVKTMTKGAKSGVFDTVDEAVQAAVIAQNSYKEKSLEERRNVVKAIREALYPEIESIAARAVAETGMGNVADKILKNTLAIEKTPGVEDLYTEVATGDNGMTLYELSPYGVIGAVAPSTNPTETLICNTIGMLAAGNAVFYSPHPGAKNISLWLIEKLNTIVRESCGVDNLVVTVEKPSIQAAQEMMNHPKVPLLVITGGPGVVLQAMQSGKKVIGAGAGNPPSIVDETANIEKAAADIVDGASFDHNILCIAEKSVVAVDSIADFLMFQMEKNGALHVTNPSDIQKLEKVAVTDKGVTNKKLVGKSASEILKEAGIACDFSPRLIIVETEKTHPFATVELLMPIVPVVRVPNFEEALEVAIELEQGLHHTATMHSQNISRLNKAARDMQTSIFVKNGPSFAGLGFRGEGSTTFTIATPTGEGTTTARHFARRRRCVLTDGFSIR

| Molecule | kcat [3] [s⁻¹] | kcat [4] [s⁻¹] | kcat [5] [s⁻¹] | kcat [6] [s⁻¹] | kcat [7] [s⁻¹] | Specific activity for butyryl-CoA reduction [8] [µmol/min/mg] | Acyl-CoA substrate favoured (highest specific activity) [9] | Alcohol production from the growth rescue broth, n-butanol versus ethanol (E. coli strain JCL166) | further results |
| --- | --- | --- | --- | --- | --- | --- | --- | --- | --- |
| CCCCO [n-butanol] |  |  |  |  |  |  |  |  | growth of S. elongatus strain BUOH-SE ([1]; 750 mg/L of n-butanol in culture medium): visible growth retardation; growth of S. elongatus strain BUOH-SE ([1]; 1 g/L of n-butanol): cell growth is inhibited; growth of S. elongatus strain BUOH-SE ([2]; 750 mg/L n-butanol in culture medium): visible growth retardation; growth of S. elongatus strain BUOH-SE ([2]; 1 g/L n-butanol): cell growth is inhibited |
| CCCC(=O)SCCNC(=O)CCNC(=O)[C@H](O)C(C)(C)COP(=O)(O)OP(=O)(O)OC[C@H]1O[C@@H](n2cnc3c(N)ncnc32)[C@H](O)[C@@H]1OP(=O)(O)O [Butyryl-CoA, butyryl-CoA] | 3.37 ± 0.19 | 7.02 ± 0.64 | 11.99 ± 1.56 | 0.19 ± 0.02 | 25.38 ± 1.81 |  |  |  | Ratio C4:C2 (butyryl-CoA to acetyl-CoA catalytic efficiency ratio) [3, 12]: 2; Ratio C4:C2 (butyryl-CoA to acetyl-CoA catalytic efficiency ratio) [4, 12]: 5; Ratio C4:C2 (butyryl-CoA to acetyl-CoA catalytic efficiency ratio) [5, 12]: 1.4; Ratio C4:C2 (butyryl-CoA to acetyl-CoA catalytic efficiency ratio) [6, 12]: 0.6; Ratio C4:C2 (butyryl-CoA to acetyl-CoA catalytic efficiency ratio) [7, 12]: 6.8 |
| CC(=O)SCCNC(=O)CCNC(=O)[C@H](O)C(C)(C)COP(=O)(O)OP(=O)(O)OC[C@H]1O[C@@H](n2cnc3c(N)ncnc32)[C@H](O)[C@@H]1OP(=O)(O)O [Acetyl-CoA, acetyl-CoA] | 0.26 ± 0.10 | 4.63 ± 0.19 | 11.33 ± 0.97 | 0.08 ± 0.01 | 14.81 ± 1.00 |  |  |  |  |
| B1 |  |  |  |  |  | 8.9 ± 4.6 | highest for propionyl-CoA reduction | more n-butanol than ethanol |  |
| B2 |  |  |  |  |  | 2.5 ± 0.2 | hexanoyl-CoA | more n-butanol than ethanol | Km [10]: 76.0 ± 38.2 µM; Km [11]: 534.3 ± 59.8 µM |

Reference: US20160138049A1, “OXYGEN-TOLERANT CoA-ACETYLATING [sequence] DEHYDROGENASE CONTAINING PATHWAY FOR BIOFUEL PRODUCTION” (The Regents of the University of California, priority 2013, published 2016)
